Reference: patent US8314092B2, “Substituted [(5H-pyrrolo[2,1-c][1,4]benzodiazepin-11-yl)piperazin-1-yl]-2,2-dimethylpropanoic acid compounds as dual activity H1 inverse agonists/5-HT2A antagonists” (Eli Lilly and Company, priority 2011, dated 2012)
Where a name gives a salt, the structure may show the parent alone.

How the values were obtained:
[1] = biological target: 5-HT6 (Homo sapiens, UniProt P50406); experiment: 5-HT6 binding
From the text: (§1) Further, the compounds of the invention may be tested in binding assays and functional activity assays by well known methods for other physiologically important receptors such as, but not limited to, the hERG channel, other serotonin receptors (specifically 5-HT1A, 5-HT1B, 5-HT1D, 5-HT1E, 5-HT1F receptors, lack of agonist activity at 5-HT2B receptors, 5-HT2C, 5-HT4, 5-HTS, 5-HT6, and 5-HT7 receptors), muscarinic receptors, dopaminergic receptors (specifically D1, D2, and D3), GABAA receptors, adrenergic receptors and monoamine transporters. Certain exemplified compounds are tested at these receptors and are shown to lack significant activity.

[2] = biological target: 5-HT1F (Homo sapiens, UniProt P30939); experiment: 5-HT1F binding
From the text: as §1

[3] = biological target: 5-HT5 (Homo sapiens, UniProt P47898); experiment: 5-HT5 binding
From the text: as §1

[4] = biological target: Dopamine Transporter (Homo sapiens, UniProt Q01959); experiment: Dopamine transporter assay; type: binding; conditions: dihydrochloride
From the text: as §1

[5] = biological target: T1, 5-HT2A Receptor (Rattus norvegicus, UniProt P14842); experiment: 5-HT2A receptor occupancy in vivo (MDL 100907 tracer); conditions: oral gavage, 1 hour before tracer, read-out: 5-HT2A receptor occupancy EC50
T1 construct: samples of the frontal cortex and cerebellum are removed; from tissue; host or cells: living rat; frontal cortex (cerebellum as null region)
Description: Briefly, male Sprague-Dawley rats (Harlan Sprague-Dawley, Indianapolis, Ind.) weighing approximately 230-280 grams are given ad lib access to food and water until the beginning of the 3-hour experimental protocol. 1 mg/kg ketanserin (non-selective 5-HT2A antagonist) is used as a positive control to establish assay validity. Test compounds or control are administered by oral gavage in a vehicle comprised of 20% hydroxypropyl beta-cyclodextrin. MDL 100907 ((R) -(+)-α-(2,3-Dimethoxyphenyl)-1-[2-(4-fluorophenyl)ethyl]-4-piperidinemethanol), a selective 5-HT2A antagonist, is used as a tracer. […] It is at the time of tracer administration that receptor occupancy (RO) is considered to be measured. […] The level of MDL 100907 tracer is measured in each cortical and cerebellar sample. RO is calculated using the well-established ratio method which employs a region of high receptor density representative of total binding (frontal cortex) normalized by an area without or with very low levels of receptor (cerebellum). […]
MDL 100907 Analysis: Cortex and cerebellar samples are weighed and placed in conical centrifuge tubes on ice. […] Standards are prepared by adding known quantities of analyte to brain tissue samples from non-treated rats and processing as described above. […]

[6] = biological target: Serotonin Transporter (Homo sapiens, UniProt P31645); experiment: Serotonin transporter assay; type: binding; conditions: dihydrochloride
From the text: as §1

[7] = biological target: T2, 5-HT2A receptor (Mus musculus, UniProt P35363); experiment: Inhibition of DOI induced headshake activity; type: in vivo; conditions: mice, 10 mg/kg PO, 60 minutes pre-treatment, DOI 3 mg/kg
T2 construct: male C57BL/6J mice (20-25 g, Charles River); from tissue; host or cells: living C57BL/6J mouse (whole animal, behavioural read-out)
Description: (see for example Bartoszyk G D, van Amsterdam C, Böttcher H, Seyfried C A. EMD 281014, a new selective serotonin 5-HT2A receptor antagonist. Eur J Pharmacol. 2003 473: 229-230.) Briefly, male C57BL/6J mice (20-25 g, Charles River) are housed in standard housing conditions (32 mice in a large IVC cage, 07.00 to 19.00 light phase, constant temperature (19-23° C.) and humidity (50%+/−10), ad lib food and water). Mice received either vehicle (0.25% Methyl cellulose), DOI (3 mg/kg in saline) or test compound at 10 mg/kg PO plus DOI (3 mg/kg in saline). Test compounds are individually evaluated in groups of four per experiment with n=4 for each compound, together with vehicle and DOI+vehicle (n=8). After a test compound pre-treatment time of 60 minutes the mice receive either vehicle (saline) or 3 mg/kg DOI dosed subcutaneously, and are then placed into clear perspex observation chambers. […] The data is analyzed using an ANOVA and post-hoc Dunnet's Test. Exemplified compounds are tested essentially as described and are found to inhibit the DOI induced headshake response at greater than 90% at 10 mg/kg. The compound of example 13 is tested essentially as described and is found to inhibit the DOI induced headshake response at 100% at 10 mg/kg.

T1 sequence (P14842 whole entry): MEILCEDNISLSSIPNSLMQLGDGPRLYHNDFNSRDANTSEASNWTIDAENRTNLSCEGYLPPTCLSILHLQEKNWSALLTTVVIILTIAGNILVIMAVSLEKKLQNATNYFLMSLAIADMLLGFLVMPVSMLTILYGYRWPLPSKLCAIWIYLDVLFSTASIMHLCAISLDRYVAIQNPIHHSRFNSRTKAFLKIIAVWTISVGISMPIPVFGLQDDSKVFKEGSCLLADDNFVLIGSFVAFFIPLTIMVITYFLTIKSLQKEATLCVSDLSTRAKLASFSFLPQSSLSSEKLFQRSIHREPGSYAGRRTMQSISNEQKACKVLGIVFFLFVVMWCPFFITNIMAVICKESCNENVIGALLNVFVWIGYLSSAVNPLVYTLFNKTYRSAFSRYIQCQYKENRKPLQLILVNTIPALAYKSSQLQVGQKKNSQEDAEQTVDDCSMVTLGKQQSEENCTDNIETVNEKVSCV
5-HT6, sequence (P50406 whole entry, species assumed): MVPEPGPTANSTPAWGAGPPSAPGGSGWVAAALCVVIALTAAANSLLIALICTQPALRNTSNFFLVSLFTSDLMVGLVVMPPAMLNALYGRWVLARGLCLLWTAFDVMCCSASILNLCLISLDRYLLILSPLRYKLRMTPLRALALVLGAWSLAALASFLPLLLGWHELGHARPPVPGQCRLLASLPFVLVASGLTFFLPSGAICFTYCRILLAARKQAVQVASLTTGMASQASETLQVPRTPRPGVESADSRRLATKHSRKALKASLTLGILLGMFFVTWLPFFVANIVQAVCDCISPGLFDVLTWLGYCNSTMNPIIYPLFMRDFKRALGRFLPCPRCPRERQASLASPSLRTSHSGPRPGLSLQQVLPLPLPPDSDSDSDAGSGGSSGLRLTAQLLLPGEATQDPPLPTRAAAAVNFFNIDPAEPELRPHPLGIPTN
Dopamine Transporter, sequence (Q01959 whole entry): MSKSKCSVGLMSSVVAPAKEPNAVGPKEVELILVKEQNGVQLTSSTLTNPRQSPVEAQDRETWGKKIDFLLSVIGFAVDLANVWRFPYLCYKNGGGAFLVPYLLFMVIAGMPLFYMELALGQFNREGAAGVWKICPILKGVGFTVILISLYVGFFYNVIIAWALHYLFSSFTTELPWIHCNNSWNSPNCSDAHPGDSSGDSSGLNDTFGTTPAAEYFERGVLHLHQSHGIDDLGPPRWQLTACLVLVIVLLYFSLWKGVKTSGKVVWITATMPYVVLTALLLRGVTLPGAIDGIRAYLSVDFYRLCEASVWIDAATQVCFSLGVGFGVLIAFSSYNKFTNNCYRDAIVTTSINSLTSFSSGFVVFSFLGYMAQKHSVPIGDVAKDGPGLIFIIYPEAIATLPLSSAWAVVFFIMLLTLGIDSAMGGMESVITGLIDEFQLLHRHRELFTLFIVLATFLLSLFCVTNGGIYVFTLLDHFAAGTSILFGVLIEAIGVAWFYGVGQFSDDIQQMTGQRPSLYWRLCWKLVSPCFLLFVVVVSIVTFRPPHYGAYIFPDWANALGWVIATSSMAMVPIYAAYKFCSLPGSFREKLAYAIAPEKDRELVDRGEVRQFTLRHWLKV
Serotonin Transporter, sequence (P31645 whole entry): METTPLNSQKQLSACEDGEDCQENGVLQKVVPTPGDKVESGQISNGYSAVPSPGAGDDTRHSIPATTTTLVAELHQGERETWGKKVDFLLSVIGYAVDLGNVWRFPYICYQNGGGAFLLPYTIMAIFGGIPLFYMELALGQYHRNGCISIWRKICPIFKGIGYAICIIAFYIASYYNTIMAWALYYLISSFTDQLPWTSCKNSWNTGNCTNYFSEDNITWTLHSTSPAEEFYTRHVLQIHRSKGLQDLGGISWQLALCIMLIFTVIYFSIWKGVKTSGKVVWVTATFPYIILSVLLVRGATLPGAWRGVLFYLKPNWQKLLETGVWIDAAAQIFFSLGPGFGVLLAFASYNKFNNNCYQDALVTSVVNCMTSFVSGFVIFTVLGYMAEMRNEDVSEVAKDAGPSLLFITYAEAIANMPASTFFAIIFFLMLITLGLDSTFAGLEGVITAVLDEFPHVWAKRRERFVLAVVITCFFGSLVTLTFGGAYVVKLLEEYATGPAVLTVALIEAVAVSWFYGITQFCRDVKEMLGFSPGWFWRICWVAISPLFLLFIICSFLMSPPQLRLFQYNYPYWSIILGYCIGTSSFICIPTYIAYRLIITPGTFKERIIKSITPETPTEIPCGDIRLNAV
5-HT5, sequence (P47898 whole entry, species assumed): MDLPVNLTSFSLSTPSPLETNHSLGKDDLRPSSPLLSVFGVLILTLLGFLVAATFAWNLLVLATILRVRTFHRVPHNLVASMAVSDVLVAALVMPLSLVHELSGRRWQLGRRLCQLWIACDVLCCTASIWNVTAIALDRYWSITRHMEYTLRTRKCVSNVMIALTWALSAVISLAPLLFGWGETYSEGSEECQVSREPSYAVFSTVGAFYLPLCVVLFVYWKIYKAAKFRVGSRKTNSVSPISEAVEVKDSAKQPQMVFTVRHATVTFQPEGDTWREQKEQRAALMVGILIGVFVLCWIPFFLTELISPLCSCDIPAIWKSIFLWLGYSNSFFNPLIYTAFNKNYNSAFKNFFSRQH
5-HT1F, sequence (P30939 whole entry, species assumed): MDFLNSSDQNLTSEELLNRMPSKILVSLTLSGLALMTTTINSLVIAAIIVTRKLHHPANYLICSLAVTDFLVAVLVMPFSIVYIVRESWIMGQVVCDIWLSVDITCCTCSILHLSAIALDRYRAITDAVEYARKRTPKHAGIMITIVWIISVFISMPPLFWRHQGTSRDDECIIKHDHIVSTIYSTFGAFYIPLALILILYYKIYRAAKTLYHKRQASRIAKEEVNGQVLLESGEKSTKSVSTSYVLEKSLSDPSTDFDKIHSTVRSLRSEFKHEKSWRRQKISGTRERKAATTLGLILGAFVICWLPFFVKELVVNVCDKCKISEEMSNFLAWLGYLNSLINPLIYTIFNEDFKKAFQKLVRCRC
T2 sequence (P35363 whole entry): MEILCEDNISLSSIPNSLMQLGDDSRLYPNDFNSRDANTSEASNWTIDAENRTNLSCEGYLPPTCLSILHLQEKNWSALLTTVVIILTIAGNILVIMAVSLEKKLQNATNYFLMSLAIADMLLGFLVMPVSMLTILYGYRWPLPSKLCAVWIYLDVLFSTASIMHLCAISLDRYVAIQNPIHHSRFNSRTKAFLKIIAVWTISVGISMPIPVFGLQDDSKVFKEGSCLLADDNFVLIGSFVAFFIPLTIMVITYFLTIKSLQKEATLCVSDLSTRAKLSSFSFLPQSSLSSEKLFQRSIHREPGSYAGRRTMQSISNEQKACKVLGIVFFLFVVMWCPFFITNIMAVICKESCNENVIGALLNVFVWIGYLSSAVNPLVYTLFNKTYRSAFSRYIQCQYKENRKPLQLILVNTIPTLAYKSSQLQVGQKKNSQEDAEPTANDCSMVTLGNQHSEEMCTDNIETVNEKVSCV

Cc1cc2n(c1)Cc1cc(Cl)ccc1N=C2N1CCN(CC(C)(C)C(=O)O)CC1 [Example 13, 3-[4-(7-Chloro-2-methyl-5H-pyrrolo[2,1-c][1,4]benzodiazepin-11-yl)piperazin-1-yl]-2,2-dimethylpropanoic acid dihydrochloride]
Ki [1]: > 5.83 µM | Ki [2]: > 8.25 µM | Ki [3]: > 9.09 µM | Dopamine Transporter [4]: >880 | ED50 [5]: 0.27 mg/kg | Serotonin Transporter [6]: >515 | inhibition of DOI induced headshake response [7]: 100%
